Test results reported in US20220348970A1, “METHODS AND COMPOSITIONS FOR 3-HYDROXYPROPIONATE PRODUCTION” (The Regents of the University of California, priority 2017, published 2022).

Key:
[1] = target: T1, pyruvate decarboxylase from Gluconacetobacter diazotrophicus (4COK), SEQ ID NO: 1 (Gluconacetobacter diazotrophicus, UniProt A9H275); assay: Steady-state kinetics of 4COK decarboxylase on pyruvate and oxaloacetate (ADH/NADPH coupled, 340 nm); type: biochemical; conditions: pH 7.2, 21° C., 0.1 mM-5 mM substrate
T1 construct: likely strain PAl 5 (ATCC 49037 / DSM 5601)
T1 sequence (A9H275 1-558): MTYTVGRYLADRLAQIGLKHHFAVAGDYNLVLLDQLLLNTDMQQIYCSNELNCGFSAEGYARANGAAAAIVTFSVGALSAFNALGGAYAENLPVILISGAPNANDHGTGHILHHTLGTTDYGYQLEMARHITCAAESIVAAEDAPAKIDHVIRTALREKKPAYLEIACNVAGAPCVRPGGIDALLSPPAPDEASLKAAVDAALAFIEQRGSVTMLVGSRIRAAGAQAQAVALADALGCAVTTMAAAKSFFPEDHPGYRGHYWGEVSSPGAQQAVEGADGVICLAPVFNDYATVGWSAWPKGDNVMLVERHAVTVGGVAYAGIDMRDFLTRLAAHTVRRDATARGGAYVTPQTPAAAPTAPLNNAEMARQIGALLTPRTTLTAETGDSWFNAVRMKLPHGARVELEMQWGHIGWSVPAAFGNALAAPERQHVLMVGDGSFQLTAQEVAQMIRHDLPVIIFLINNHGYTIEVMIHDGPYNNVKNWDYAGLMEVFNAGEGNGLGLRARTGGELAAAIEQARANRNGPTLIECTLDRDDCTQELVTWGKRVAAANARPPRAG
Method: Overnight cultures of BLR cells suspended in a 2 mL volume were transformed with a pet29b+ plasmid (encoding polypeptides of interest with a C-terminal His-tag) and grown in Terrific Broth with 50 μg/ml kanamycin. Cultures were diluted 1:1.000 in 500 ml of Terrific Broth with 1 mM MgSO4, 1% glucose and 50 μg/ml antibiotic and then grown at 37° C. for 24 hours. Cultures were pelleted down at 4,700 RPM for 10 minutes and resuspended in auto-induction media (LB broth, 1 mM MgSO4, 0.1 mM TPP, 1×NPS and 1×5052) for induction at 18° C. for 20 hours. […] Protein concentrations were determined using a Synergy H1 spectrophotometer (Biotek) by measuring absorbance at 280 nm using calculated extinction coefficients.
All substrates were dissolved in MilliQ H2O and the pH was adjusted to 7.2 as necessary. Activity for oxaloacetate, pyruvate, and 2-ketoisovalerate was measured at a 1 mM substrate concentration. […] Absorbance readings were taken at one minute intervals at 340 nm at 21° C. for 60 minutes using the Synergy H1 spectrophotometer (Biotek). Kinetic parameters (ka and Ks1) were determined by fitting initial velocity versus substrate concentration data to the Michaelis-Menten equation. […]

[2] = target: T2, OAADC A0A0D6NFJ6_9PROT, SEQ ID NO: 166 (Acetobacter indonesiensis, UniProt A0A6N3T5V0); assay: OAADC kinetics of A0A0D6NFJ6_9PROT on oxaloacetate; type: biochemical; conditions: pH 7.2, 21° C.
T2 sequence (A0A6N3T5V0 with tags, fused parts or gaps): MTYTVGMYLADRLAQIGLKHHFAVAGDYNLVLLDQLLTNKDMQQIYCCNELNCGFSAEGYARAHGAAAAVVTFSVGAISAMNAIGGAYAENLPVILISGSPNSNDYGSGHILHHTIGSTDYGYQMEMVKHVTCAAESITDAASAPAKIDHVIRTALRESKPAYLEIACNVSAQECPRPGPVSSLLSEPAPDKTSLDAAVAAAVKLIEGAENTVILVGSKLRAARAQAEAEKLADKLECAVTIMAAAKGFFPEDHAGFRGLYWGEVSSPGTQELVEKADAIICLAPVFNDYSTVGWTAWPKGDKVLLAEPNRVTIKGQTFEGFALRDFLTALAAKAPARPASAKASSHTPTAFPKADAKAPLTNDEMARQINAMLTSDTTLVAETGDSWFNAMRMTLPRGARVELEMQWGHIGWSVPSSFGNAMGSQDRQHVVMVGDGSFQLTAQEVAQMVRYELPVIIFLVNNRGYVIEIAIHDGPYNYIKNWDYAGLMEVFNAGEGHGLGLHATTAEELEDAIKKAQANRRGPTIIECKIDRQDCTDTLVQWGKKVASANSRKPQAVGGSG
Method: All substrates were dissolved in MilliQ H2O and the pH was adjusted to 7.2 as necessary. Activity for oxaloacetate, pyruvate, and 2-ketoisovalerate was measured at a 1 mM substrate concentration. The assay was performed in a 96-well half-area plate. Each reaction contained reaction buffer (100 mM HEPES, 100 mM NaCl, 10% glycerol, pH 7.2), ADH (Sigma-Aldrich, A7011, 100 U/mL for pyruvate, 600 U/mL for oxaloacetate, and 600 U/mL for 2-ketoisovalerate), and a final concentration of 0.5 mM NADPH, 0.1 mM TPP, and 1 mM MgSO4. A range of substrate concentrations (0.1 mM-5 mM) were uSEQ to perform steady-state kinetics measurement over a period of one hour. Absorbance readings were taken at one minute intervals at 340 nm at 21° C. for 60 minutes using the Synergy H1 spectrophotometer (Biotek). Kinetic parameters (ka and Ks1) were determined by fitting initial velocity versus substrate concentration data to the Michaelis-Menten equation.
A second round of genome mining was conducted as described in Example 1, except using the 4COK sequence as the input. Genes encoding candidate OAADCs were synthesized and expressed in E. coli for further characterization. OAADC activity was assayed as described in Example 1.

## O=C(O)CC(=O)C(=O)O [Oxaloacetate]
[1]
  Km: > 20 mM
[2]
  Km: > 20 mM
